The record followed here is US10308631B2, “Selective anti-cancer compounds” (NATIONAL UNIVERSITY OF SINGAPORE, priority 2015, dated 2019).

The subject of assay [1] is mitotic marker phospho-histone H3 at serine 10 (pH3 (Ser10)) in transformed BJ cells. Briefly: Immunoblot analysis of mitotic marker pH3 (Ser10), derivatives of Compound 1. It is filed as cell-based. To be noted: Homo sapiens, band intensities pH3(Ser10)/β-actin vs DMSO control, 24 h. Here is the method: (§1) FIG. 4 compares the ability of Compound 1 (a131), and various derivatives thereof (referred to using their code numbers for brevity; the designated chemical compound for each code number is provided in the chemical examples section below), to inhibit autophagy and/or mitosis. BJ transformed cells were treated with 5 μM of various Compounds as shown, for 24 h. Cells were harvested and total lysates were analysed by detecting the mitotic marker phospho-histone H3 at serine 10 (pH3 (Ser10)) and the autophagosome marker LC3. Antibodies raised against β-actin were used as an internal loading control.
(§2) The ability of Compound 1 to inhibit lysosome function was examined using immunoblotting. HeLa cervical cancer cells were cultured in Dulbecco's modified Eagle's medium (DMEM) supplemented with 10% Fetal Bovine Serum (FBS, Thermo Scientific). The HeLa cells were treated with different concentrations of Compound 1 (0.625, 1.25, 2.5, 5 and 10 μM, dimethyl sulfoxide (DMSO, Kanto Kagaku)), chloroquine (CQ) (1.25, 2.5, 10, 50 and 100 μM, DMSO) or DMSO for 6 h. Then, the treated cells were harvested and lysed in 1% triton lysis buffer [25 mM Tris HCl (pH8.0), 150 mM NaCl, 1% triton-X100, 1 mM dithiothreitol (DTT), protease inhibitor mix (Complete Mini, Roche) and phosphatase inhibitor (PhosphoStop, Roche)]. The proteins in total lysates were boiled with sample buffer (60 mM Tris-HCl (pH 6.8), 25% glycerol, 2% SDS, 14.4 mM 2-mercaptoethanol, 0.1% bromophenol blue) and resolved by 14% tris-glycine sodium dodecyl sulfate polyacrylamide gel electrophoresis (SDS-PAGE) and subjected to immunoblot analysis.
(§3) Defects in lysosome function and inhibition of autophagy can be measured by accumulation of LC3-phosphatidylethanolamine conjugated non-soluble form (LC3-II), which are converted from soluble LC3-I. Thus, antibodies raised against LC3 (Cell Signaling, Cat#4108) were used to determine lysosomal function and integrity. Antibodies raised against phosphorylated histone H3 at serine 10 residue (pH3) (Cell signaling, Cat#3377) were used as the marker for mitotic dysfunction and arrest. Antibodies raised against β-actin (Millipore, Cat#MAB1501) were used as an internal loading control. The inhibitory ability of Compound 1 was also quantitatively compared to CQ.
(§4) Derivatives of Compound 1 were tested to see if they had similar dual activity, or presented only one of the activities of Compound 1. The protocol for immunoblot analysis described in Biology Example 1 was applied to the additional indicated compounds.
(§5) Activities of compounds were determined by two independent experiments. First, Compounds were classified according to the intensity of increase in each of the mitotic marker phospho-histone H3 at serine 10 (pH3 (Ser 10)) and the autophagosome marker LC3, respectively, at 1.25 μM, when compared with 1.25 μM Compound 1 (a131).
(§6) Compounds classified “++” on either “mitosis” or “inhibits lysosome” show similar increase in each of the mitotic marker phospho-histone H3 at serine 10 (pH3 (Ser10)) and the autophagosome marker LC3, respectively, at 2.5 μM, when compared with 1.25 μM Compound 1 (a131); and compounds classified “+” on either “mitosis” or “inhibits lysosome” show similar increase in each of the mitotic marker phospho-histone H3 at serine 10 (pH3 (Ser10)) and the autophagosome marker LC3, respectively, at a concentration range of 5-10 μM, when compared with 1.25 μM Compound 1 (a131).
Compounds classified “+/−” on either “mitosis” or “inhibits lysosome” show less increase in each of the mitotic marker phospho-histone H3 at serine 10 (pH3 (Ser10)) and the autophagosome marker LC3, respectively, at a concentration range of 5-10 μM, when compared with 1.25 μM Compound 1 (a131).
Next, the ability of Compound 1 and its derivatives to induce mitotic arrest in transformed BJ cells was quantified as the fold induction of band intensities [pH3(Ser10)/β-actin] in comparison with DMSO control. […]
On the technique in general: In western blotting, separated proteins are transferred to a membrane and probed.

For assay [2], the system named is autophagosome marker LC3 (LC3 II/LC3 I) in transformed BJ cells. Briefly: Immunoblot analysis of autophagosome marker LC3 (lysosome function), derivatives of Compound 1. Format: cell-based. To be noted: Homo sapiens, band intensities LC3 II/LC3 I vs DMSO control, 24 h. The method, then: as §1, §2, §3, §4, §5, §6
Compounds classified “+/−” on either “mitosis” or “inhibits lysosome” show less increase in each of the mitotic marker phospho-histone H3 at serine 10 (pH3 (Ser10)) and the autophagosome marker LC3, respectively, at a concentration range of 5-10 μM, when compared with 1.25 μM Compound 1 (a131). […]

The subject of assay [3] is pH3 (Ser10) and LC3 in BJ transformed cells. Briefly: Immunoblot classification of compounds by pH3 and LC3 (FIG. 4). It is filed as cell-based, human. To be noted: 5 μM, 24 h. The method, then: as §1, §4
The test system of assay [4] is oncogene-transformed BJ cells. Briefly: PI staining and FACS analysis, sub-G1 cell death. To be noted: for cell death (population of cells in sub-G1) / cell death: 48 h; for cell death (population of cells in sub-G1): Compound 1 2.5 μM, other Group 1 and Group 2 compounds 10 μM, Compound 3 5 μM (FIG. 5A). Format: cell-based, human. Here is the method: FIG. 5A is a histogram showing the ability of Compound 1 (a131) and its derivatives Compound 2 (a156), Compound 16 (b5), Compound 17 (b9), all in Group 1; Compound 29 (a219), Compound 13 (b12), Compound 11 (b15), Compound 12 (b16), Compound 25 (a166), all in Group 2; and Compound 3 (a159) from Group 3, to induce cancer selective cell death. Isogenic non-transformed (normal) and oncogene-transformed BJ cells were treated with each compound for 48 h and cells were stained with propidium iodide (PI) and subjected to FACS analysis. The percentage of cells in sub-G1 phase is indicative of the extent of cell death. […] In contrast, the ability of the compounds in Groups 2 and 3 to induce cancer selective cell death was markedly compromised (or reduced).
The Compounds 25 (a166) and 3 (a159) were selected from Group 2 and Group 3, respectively. Isogenic non-transformed normal and oncogene-transformed BJ cells were treated with or without 0.3 μM or 0.6 μM Compound 3 (a159) alone or together with 1.25 μM Compound 25 (a166) for 48 h. Cells were stained with propidium iodide (PI) and subjected to FACS analysis.
Isogenic non-transformed and oncogene-transformed human fibroblast BJ cell lines were cultured in DMEM supplemented with 10% FBS. The cells were treated with Compound 1 (2.5 μM, DMSO). 48 h after treatment, the cells were fixed with ethanol at −30° C. overnight and stained with 20 μg/mL propidium iodide (PI) and 10 μg/mL RNase A for 30 min. These cells were then subjected to flow cytometry (FACS) analysis using MACSQuant (Miltenyi Biotec) to count the percentage of apoptotic cells in sub-G1 peak.
The above procedure was repeated for Group 1 Compounds 2, 16 and 17, Group 2 Compounds 29, 13, 11, 12 and 25 at a concentration of 10 μM, and Group 3 Compound 3 at a concentration of 5 μM.
Isogenic non-transformed normal and oncogene-transformed BJ cells were cultured as in Biology Example 3. The cells were treated with a combination of Compound 3 (Group 3, at a concentration of 0.3 μM or 0.6 μM), and Compound 25 (Group 2, at a concentration of 1.25 μM) for 48 hours. Controls using DMSO, Compound 3 and Compound 25 alone (at the concentrations mentioned above) were also performed.
On the technique in general: Flow cytometry measures light scatter and fluorescence of single cells or particles in a stream.

As usually defined, the fold induction is the ratio of treated to control signal. For the compound `CN1CCN(CC(=O)n2cc(/C(C#N)=C/c3cccc4cnccc34)c3ccccc32)CC1` [Compound 16, (Z)-3-(isoquinolin-5-yl)-2-(1-(2-(4-methylpiperazin-1-yl)acetyl)-1H-indol-3-yl)acrylonitrile], the fold induction at 5 µM in assay [1] came out at 11.8; in assay [2], 5. In assay [3], the “Inhibition of lysosome function and/or mitosis (FIG. 4)” value (“Inhibition” for short) was “exhibit the dual properties of inhibiting both lysosome function and mitosis”. Further, the “cell death (population of cells in sub-G1)” value in assay [4] is on record as “selectively induced cell death in oncogene-transformed BJ cells while sparing normal counterparts”.
Consider `N#C/C(=C\c1cccc2ncccc12)c1c[nH]c2ccccc12` [Compound 3, (Z)-2-(1H-indol-3-yl)-3-(quinolin-5-yl)acrylonitrile], for which the fold induction at 5 µM in assay [1] worked out at 10.5; in assay [2], 0.7. The “Inhibition” value in assay [3] is listed as “inhibit mitosis only”. Moreover, in assay [4], the “cell death (population of cells in sub-G1)” value is reported as “significantly induced cell death”. Besides, the cell death result in assay [4] (Compound 3 alone at 0.3 μM) is reported as “negligible effect”; in assay [4] (Compound 3 alone at 0.6 μM) it was −15%.
Consider `N#C/C(=C\c1cccc2cnccc12)c1c[nH]c2ccccc12` [Compound 1, (Z)-2-(1H-indol-3-yl)-3-(isoquinolin-5-yl)acrylonitrile], for which the fold induction at 5 µM in assay [1] was 7.3; in assay [2], 5. Also, the “Inhibition” value in assay [3] is “exhibit the dual properties of inhibiting both lysosome function and mitosis”. In assay [4] (2.5 and 5 μM, 24 h (FIG. 9A panels g-i)), the “population of cells in sub-G1” value is “massive increase in population of oncogene-transformed BJ cells in sub-G1”. In addition, in assay [4], the “cell death (population of cells in sub-G1)” value was “selectively induced cell death in oncogene-transformed BJ cells while sparing normal counterparts”.
